Where two headings read alike, the source gives them in different places.
Legend:
[1] = target: T1, mouse alpha2B receptor (Mus musculus, UniProt P30545); assay: FLIPR Ca+2 influx antagonist assay, alpha 2B; format: cell-based; settings: for % Antagonism Alpha 2B: value in parentheses
T1 construct: expressed in transfected cells; host or cells: HEK 293
T1 sequence (P30545 1-453): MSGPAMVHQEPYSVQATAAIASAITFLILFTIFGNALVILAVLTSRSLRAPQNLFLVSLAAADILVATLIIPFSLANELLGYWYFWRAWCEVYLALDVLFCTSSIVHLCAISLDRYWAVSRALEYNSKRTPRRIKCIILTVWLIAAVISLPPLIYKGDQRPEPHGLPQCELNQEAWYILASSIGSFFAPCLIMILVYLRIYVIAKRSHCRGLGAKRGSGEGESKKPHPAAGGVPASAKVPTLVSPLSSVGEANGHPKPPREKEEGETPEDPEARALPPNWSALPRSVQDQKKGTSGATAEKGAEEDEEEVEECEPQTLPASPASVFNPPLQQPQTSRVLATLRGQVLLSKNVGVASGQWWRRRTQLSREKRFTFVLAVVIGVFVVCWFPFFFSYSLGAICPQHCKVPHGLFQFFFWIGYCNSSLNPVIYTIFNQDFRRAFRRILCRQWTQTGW
Description: (§1) HEK 293 cells stably expressing the human alpha 2A receptor and the chimeric G protein Gqi5, the mouse alpha2B receptor and the G protein G16, and the human alpha 2C receptor and the chimeric G protein Gqi5 are plated in poly-D-lysine coated 96-well plates at 50,000-75,000 cells per well and grown overnight in DMEM supplemented with 10% fetal bovine serum. For FLIPR (fluorometric image plate reader) evaluation, cells are washed twice with HBSS/HEPES Buffer (1× Hanks Buffered Salt Solution, 20 mM HEPES, pH 7.4) prior to the addition of Fluo-4-AM (4 uM Fluo-4-AM, 0.04% pluronic acid in HBSS/HEPES Buffer), a calcium-sensitive dye. Cells are loaded with dye for 60 minutes at 37° C., then washed 4 times with HBSS/HEPES Buffer. For both the agonist and antagonist assay, the test compounds are tested between 0.64 nM-10,000 nM.
(§2) However, the antagonist blocks the transient calcium signal of the standard agonist norepinephrine in a dose-dependent manner. The residual norepinephrine peak height is compared to the non-antagonized norepinephrine peak height for the determination of % antagonism.

[2] = target: T2, Alpha 1A adrenergic receptor (Homo sapiens, UniProt P35348); assay: FLIPR Ca+2 influx antagonist assay, alpha 1A; format: cell-based; settings: for % Antagonism Alpha 1A: value in parentheses, vs norepinephrine peak height
T2 sequence (P35348 1-466): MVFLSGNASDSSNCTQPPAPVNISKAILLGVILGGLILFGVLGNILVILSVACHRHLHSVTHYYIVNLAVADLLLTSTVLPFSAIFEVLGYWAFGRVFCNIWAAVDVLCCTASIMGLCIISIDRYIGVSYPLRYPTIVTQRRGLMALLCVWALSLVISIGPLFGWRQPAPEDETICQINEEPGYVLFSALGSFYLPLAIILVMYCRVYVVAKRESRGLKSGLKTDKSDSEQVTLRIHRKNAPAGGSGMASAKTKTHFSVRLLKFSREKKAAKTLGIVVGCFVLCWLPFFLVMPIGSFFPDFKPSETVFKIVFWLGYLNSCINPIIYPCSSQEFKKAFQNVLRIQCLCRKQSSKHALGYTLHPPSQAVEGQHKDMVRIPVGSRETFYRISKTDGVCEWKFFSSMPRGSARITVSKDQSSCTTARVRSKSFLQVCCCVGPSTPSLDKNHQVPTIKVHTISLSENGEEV

[3] = target: T3, Alpha 1B adrenergic receptor (Homo sapiens, UniProt P35368); assay: FLIPR Ca+2 influx antagonist assay, alpha 1B; format: cell-based; settings: for % Antagonism Alpha 1B: value in parentheses, vs norepinephrine peak height
T3 sequence (P35368 1-520): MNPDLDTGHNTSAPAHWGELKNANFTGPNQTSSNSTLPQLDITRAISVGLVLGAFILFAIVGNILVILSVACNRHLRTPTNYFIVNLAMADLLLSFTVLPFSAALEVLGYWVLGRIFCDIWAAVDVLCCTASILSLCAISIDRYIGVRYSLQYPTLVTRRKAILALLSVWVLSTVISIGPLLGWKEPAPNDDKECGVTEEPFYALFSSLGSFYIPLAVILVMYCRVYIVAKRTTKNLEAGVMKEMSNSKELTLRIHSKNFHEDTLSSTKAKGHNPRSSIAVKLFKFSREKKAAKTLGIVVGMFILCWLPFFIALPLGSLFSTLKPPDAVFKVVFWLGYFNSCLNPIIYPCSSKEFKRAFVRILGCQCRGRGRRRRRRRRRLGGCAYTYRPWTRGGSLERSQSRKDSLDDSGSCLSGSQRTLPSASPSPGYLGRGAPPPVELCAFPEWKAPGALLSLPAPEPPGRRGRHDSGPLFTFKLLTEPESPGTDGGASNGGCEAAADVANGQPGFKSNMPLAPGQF

[4] = target: T4, human alpha 2A receptor (Homo sapiens, UniProt P08913); assay: FLIPR Ca+2 influx antagonist assay, alpha 2A; format: cell-based; settings: HEK 293 cells, Gqi5; for IC50: antagonism of norepinephrine calcium signal; for % Antagonism Alpha 2A: value in parentheses
T4 construct: expressed in transfected cells; host or cells: HEK 293
T4 sequence (P08913 1-465): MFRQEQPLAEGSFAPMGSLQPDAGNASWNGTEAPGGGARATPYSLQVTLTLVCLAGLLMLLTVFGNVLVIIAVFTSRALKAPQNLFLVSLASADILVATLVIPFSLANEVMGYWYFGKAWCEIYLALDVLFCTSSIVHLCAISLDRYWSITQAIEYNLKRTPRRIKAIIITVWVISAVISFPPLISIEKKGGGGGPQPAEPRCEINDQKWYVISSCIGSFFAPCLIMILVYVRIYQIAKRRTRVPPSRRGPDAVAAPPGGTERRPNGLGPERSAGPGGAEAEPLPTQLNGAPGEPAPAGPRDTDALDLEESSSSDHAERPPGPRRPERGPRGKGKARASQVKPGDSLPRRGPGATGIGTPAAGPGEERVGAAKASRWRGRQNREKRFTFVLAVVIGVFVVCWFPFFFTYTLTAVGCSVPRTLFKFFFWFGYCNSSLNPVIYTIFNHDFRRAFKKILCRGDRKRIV
Description: as §1, §2

[5] = target: T5, human alpha 2C receptor (Homo sapiens, UniProt P18825); assay: FLIPR Ca+2 influx antagonist assay, alpha 2C; format: cell-based; settings: HEK 293 cells, Gqi5; for % Antagonism Alpha 2C: value in parentheses
T5 construct: expressed in transfected cells; host or cells: HEK 293
T5 sequence (P18825 1-462): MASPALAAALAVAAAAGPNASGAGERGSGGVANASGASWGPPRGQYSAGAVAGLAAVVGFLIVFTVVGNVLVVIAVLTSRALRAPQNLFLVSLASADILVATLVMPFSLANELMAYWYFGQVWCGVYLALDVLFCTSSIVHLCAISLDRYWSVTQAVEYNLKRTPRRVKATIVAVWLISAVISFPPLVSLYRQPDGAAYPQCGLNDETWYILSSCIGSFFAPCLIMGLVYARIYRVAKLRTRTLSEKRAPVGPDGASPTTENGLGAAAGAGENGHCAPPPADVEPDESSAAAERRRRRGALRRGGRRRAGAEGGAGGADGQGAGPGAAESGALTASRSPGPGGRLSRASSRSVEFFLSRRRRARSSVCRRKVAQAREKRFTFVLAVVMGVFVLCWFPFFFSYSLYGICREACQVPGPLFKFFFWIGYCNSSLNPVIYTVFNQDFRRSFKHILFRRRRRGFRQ
Description: as §1, §2

[6] = system: mechanical allodynia; assay: Chung rat nerve ligation model of neuropathic pain (mechanical allodynia); format: in vivo; settings: co-administered IP at 100 ug/kg each, 30 minutes post drug, FIG. 1A
Description: The Chung model is a surgical model of neuropathic pain in rats. The pain state is generated by tight ligation of the L5 and L6 spinal nerves on one side of the rat. The surgical procedure results in a long-lasting mechanical allodynia in the affected foot. Mechanical allodynia is measured using von Frey filaments, where the investigator stimulates the plantar surface of the affected foot. Different sized filaments generate a different force. A painful response is signified by withdrawal of the paw.
Mechanical allodynia is measured at 30 minutes post drug and is reported as the percentage response to the baseline reading taken pre-drug administration.
The lack of allodynial reversal in these rats is also a measure of antagonist ability to block a response.

[7] = HEK 293 cells, G16, antagonism of norepinephrine calcium signal, read-out: IC50 Alpha 2B

Row | Structure (SMILES) | IC50 [1, 7] [µM] | % Antagonism Alpha 2B ([1]; HEK 293 cells, G16) [%] | % Antagonism Alpha 1A [2] | IC50 [3] [µM] | % Antagonism Alpha 1B [3] [%] | IC50 [4] [µM] | % Antagonism Alpha 2A [4] | IC50 [1] [µM] | % Antagonism Alpha 2C [5] | block of allodynia reversal by 4-Cyclopent-3-enylmethyl-1,3-dihydro-imidazole-2-thione [6] | IC50 ([2]; antagonism of norepinephrine calcium signal, read-out: IC50 Alpha 1A) [µM] | IC50 ([3]; antagonism of norepinephrine calcium signal, read-out: IC50 Alpha 1B) [µM] | IC50 ([5]; antagonism of norepinephrine calcium signal) [µM] | IC50 [2] [µM]
1 | Cn1c(N)c(C#N)c2c(c1=S)CNCC2 [Example 4, 3-amino-2-methyl-1-thioxo-1,2,5,6,7,8-hexahydro-2,7-naphthyridine-4-carbonitrile] | 0.342 | 93 |  |  |  |  |  |  |  |  |  |  |  | 
2 | CN1CCc2c(C#N)c(N)n(C)c(=S)c2C1 [Example 5, 3-amino-2,7-dimethyl-1-thioxo-1,2,5,6,7,8-hexahydro-2,7-naphthyridine-4-carbonitrile] |  | 95 | nd (64) % | > 8.3 | 0 | 1.99 | 69% | 0.01 | nd (25) % | completely blocks |  |  |  | 
3 | CN1CCc2c(C#N)c(N)n(N)c(=S)c2C1 [Example 6, 2,3-diamino-4-cyano-7-methyl-(1,2,5,6,7,8-hexahydro-2,7-napthyridine-1-thione)] | 0.204 | 112 | 19% |  | 19 |  | nd (36) % |  | 29% |  | > 7.5 | > 7.5 | 1.41 | 
4 | CN1Cc2c(c(C#N)c(N)n(N)c2=S)CC1(C)C [Example 7, 2,3-diamino-4-cyano-6,6,7-trimethyl-(1,2,5,6,7,8-hexahydro-2,7-napthyridine-1-thione)] |  | 97 | 98% | > 7.5 | 16 | > 7.5 | 0% | 0.029 | nd (17) % |  |  |  |  | 0.382
5 | CCn1c(N)c(C#N)c2c(c1=S)CN(C)CC2 [Example 8, 3-Amino-2-ethyl-4-cyano-7-methyl-(1,2,5,6,7,8-hexahydro-2,7-napthyridine-1-thione)] | 0.473 | 95 |  |  |  |  |  |  |  |  |  |  |  | 
6 | CN1CCc2c(C#N)c(N)n(C)c(=O)c2C1 [Example 9, 3-Amino-2-methyl-4-cyano-7-methyl-(1,2,5,6,7,8-hexahydro-2,7-napthyridine-1-ketone)] | 1.17 | 88 |  |  |  |  |  |  |  |  |  |  |  | 

Source: US20100076194A1, “SUBSTITUTED 3-AMINO-1-OXO OR THIOXO-1,2,5,6,7,8-HEXAHYDRO-2,7-NAPHTHYRIDINE-4-CARBONITRILES ARE SELECTIVE ALPHA 2B ANTAGONISTS” (ALLERGAN, INC., priority 2008, published 2010)
